Laboratory results reported in patent US12084436B2, “Heterocyclic compound” (Takeda Pharmaceutical Company Limited, priority 2019, dated 2024).

The molecules below were run against T1, HDAC6 enzyme (Homo sapiens, UniProt Q9UBN7) (assay: HDAC6 enzyme inhibitory assay (HDAC-Glo I/II Assay kit, luminescence)). Details: 10 μM test compound; wells without enzyme = 100% inhibition; 10 µM.
T1 construct: prepared by transducing full length HDAC6 gene into Sf-9 insect cells; GST; purchased SignalChem; host or cells: Sf-9 insect cells
T1 sequence (Q9UBN7 1-1215): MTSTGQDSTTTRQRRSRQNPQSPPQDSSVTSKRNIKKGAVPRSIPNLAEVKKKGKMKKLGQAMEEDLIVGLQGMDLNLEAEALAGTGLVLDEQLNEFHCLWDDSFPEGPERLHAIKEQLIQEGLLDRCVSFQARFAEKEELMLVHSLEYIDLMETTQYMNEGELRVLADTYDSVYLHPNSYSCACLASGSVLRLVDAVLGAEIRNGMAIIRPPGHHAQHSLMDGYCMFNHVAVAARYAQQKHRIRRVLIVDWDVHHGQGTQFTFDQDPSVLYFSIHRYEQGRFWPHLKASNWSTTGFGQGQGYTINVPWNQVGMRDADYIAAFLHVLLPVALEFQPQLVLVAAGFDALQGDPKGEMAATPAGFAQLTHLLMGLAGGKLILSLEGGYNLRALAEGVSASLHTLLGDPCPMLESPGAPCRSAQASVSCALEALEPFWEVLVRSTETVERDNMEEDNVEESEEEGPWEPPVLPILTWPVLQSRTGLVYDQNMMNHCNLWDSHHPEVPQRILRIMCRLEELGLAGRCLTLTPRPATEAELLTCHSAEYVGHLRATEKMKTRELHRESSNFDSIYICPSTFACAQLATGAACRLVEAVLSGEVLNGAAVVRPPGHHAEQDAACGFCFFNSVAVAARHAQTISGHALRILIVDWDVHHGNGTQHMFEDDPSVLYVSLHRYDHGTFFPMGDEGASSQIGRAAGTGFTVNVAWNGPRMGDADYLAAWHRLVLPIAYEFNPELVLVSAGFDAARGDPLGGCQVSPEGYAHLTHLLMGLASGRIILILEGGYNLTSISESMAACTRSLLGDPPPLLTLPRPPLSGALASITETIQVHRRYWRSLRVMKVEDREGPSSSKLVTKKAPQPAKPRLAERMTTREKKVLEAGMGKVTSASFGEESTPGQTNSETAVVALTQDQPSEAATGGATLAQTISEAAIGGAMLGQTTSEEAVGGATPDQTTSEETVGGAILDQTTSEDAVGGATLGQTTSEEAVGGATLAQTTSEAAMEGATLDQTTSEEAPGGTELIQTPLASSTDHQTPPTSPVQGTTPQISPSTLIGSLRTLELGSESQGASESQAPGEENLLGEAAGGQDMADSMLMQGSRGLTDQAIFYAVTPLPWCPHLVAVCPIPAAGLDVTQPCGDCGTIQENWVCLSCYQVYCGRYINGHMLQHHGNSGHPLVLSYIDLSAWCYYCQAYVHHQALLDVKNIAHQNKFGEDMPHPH
Format: biochemical
Procedure: HDAC6 Enzyme Inhibitory Assay
HDAC6 enzyme prepared by transducing full length HDAC6 gene into Sf-9 insect cells and purifying by GST affinity column were purchased from SignalChem. Using this enzyme, HDAC6 enzyme inhibitory activities of the compound of the present invention were evaluated. Enzymes were used after preserved at −70° C. HDAC6 enzyme inhibitory activity of the compound of the present invention was measured using HDAC-Glo™ I/II Assay kit (Promega) according to the following experimental method. The test compound diluted with assay buffer (24 mM Tris-HCl (pH 7.5), 1 mM MgCl2, 0.35 mM KCl, 135 mM NaCl, 0.6 mM Glutathione, 0.01% Tween-20) was added to a 384-well plate by each 2 μL. Then, HDAC6 enzyme solution diluted with assay buffer was added thereto by each 4 μL, and the plate was incubated at room temperature for 60 min. After incubated, HDAC substrate-Developer solution prepared according to Promega protocol attached to the assay kit was added to the 384-well plate by each 2 μL, and the enzyme reaction was started. After reacting at room temperature for 20 min, luminescence level was measured using plate reader Envision (PerkinElmer). The inhibitory activity of each compound of Example was calculated as a relative activity value when luminescence level in wells without enzyme is considered as 100% inhibition.

| Compound | HDAC6 inhibitory rate (%) (10 μM) |
| --- | --- |
| CN1C(=O)c2cc(-c3nnc(C(F)F)o3)ccc2OC1(C)c1ccc(C#N)cc1 (single isomer, unassigned; isomer 1) [Example 36b, 4-{6-[5-(difluoromethyl)-1,3,4-oxadiazol-2-yl]-2,3-dimethyl-4-oxo-3,4-dihydro-2H-1,3-benzoxazin-2-yl}benzonitrile (optical isomer 1)] | 62 |
| CN1C(=O)c2cc(-c3nnc(C(F)F)o3)ccc2CC1c1ccc(F)cc1 (single isomer, unassigned; isomer 2) [Example 42b, 7-[5-(difluoromethyl)-1,3,4-oxadiazol-2-yl]-3-(4-fluorophenyl)-2-methyl-3,4-dihydroisoquinolin-1(2H)-one (optical Isomer 2)] | 93 |

Continued, values first:

| HDAC6 inhibitory rate (%) (10 μM) | Compound |
| --- | --- |
| 100 | CN1C(=O)c2cc(-c3nnc(C(F)F)o3)cnc2CC1(C)c1ccc(F)cc1 (single isomer, unassigned) [Example 1b, 3-[5-(difluoromethyl)-1,3,4-oxadiazol-2-yl]-7-(4-fluorophenyl)-6,7-dimethyl-7,8-dihydro-1,6-naphthyridin-5(6H)-one] |
| 58 | CN1C(=O)c2cc(-c3nnc(C(F)F)o3)ccc2CC1(C)c1ccc(F)cc1 (single isomer, unassigned; isomer 1) [Example 23b, 7-[5-(difluoromethyl)-1,3,4-oxadiazol-2-yl]-3-(4-fluorophenyl)-2,3-dimethyl-3,4-dihydroisoquinolin-1(2H)-one (optical isomer 1)] |
| 56 | CN1C(=O)c2cc(-c3nnc(C(F)F)o3)cnc2CC1(C)c1ccc(F)cc1 (single isomer, unassigned; isomer 1) [Example 27b, 3-[5-(difluoromethyl)-1,3,4-oxadiazol-2-yl]-7-(4-fluorophenyl)-6,7-dimethyl-7,8-dihydro-1,6-naphthyridin-5(6H)-one (optical isomer 1)] |
| 76 | CN1C(=O)c2cc(-c3nnc(C(F)F)o3)cnc2CC1(C)c1ccc(F)c(F)c1 (single isomer, unassigned; isomer 1) [Example 39b, 3-[5-(difluoromethyl)-1,3,4-oxadiazol-2-yl]-7-(3,4-difluorophenyl)-6,7-dimethyl-7,8-dihydro-1,6-naphthyridin-5(6H)-one (optical isomer 1)] |
| 96 | CN1C(=O)c2cc(-c3nnc(C(F)F)o3)ccc2OC1(C)c1ccc(F)cc1 (single isomer, unassigned; isomer 2) [Example 9b, 6-[5-(difluoromethyl)-1,3,4-oxadiazol-2-yl]-2-(4-fluorophenyl)-2,3-dimethyl-2,3-dihydro-4H-1,3-benzoxazin-4-one (optical isomer 2)] |
| 99 | CN1C(=O)c2cc(-c3nnc(C(F)F)o3)ccc2CC1(C)c1ccc(F)cc1 (single isomer, unassigned; isomer 2) [Example 24b, 7-[5-(difluoromethyl)-1,3,4-oxadiazol-2-yl]-3-(4-fluorophenyl)-2,3-dimethyl-3,4-dihydroisoquinolin-1(2H)-one (optical isomer 2)] |
| 100 | CN1C(=O)c2cc(-c3nnc(C(F)F)o3)ccc2OC1(C)c1ccc(C#N)cc1 (single isomer, unassigned; isomer 2) [Example 37b, 4-{6-[5-(difluoromethyl)-1,3,4-oxadiazol-2-yl]-2,3-dimethyl-4-oxo-3,4-dihydro-2H-1,3-benzoxazin-2-yl}benzonitrile (optical isomer 2)] |
| 100 | CN1C(=O)c2cc(-c3nnc(C(F)F)o3)cnc2CC1(C)c1ccc(F)c(F)c1 (single isomer, unassigned; isomer 2) [Example 40b, 3-[5-(difluoromethyl)-1,3,4-oxadiazol-2-yl]-7-(3,4-difluorophenyl)-6,7-dimethyl-7,8-dihydro-1,6-naphthyridin-5(6H)-one (optical isomer 2)] |

Same assay, conditions: 10 μM test compound; wells without enzyme = 100% inhibition; read-out: HDAC6 inhibitory rate (%) (10 μM)

| Compound | inhibition at 10 µM [%] |
| --- | --- |
| CN1C(=O)c2cc(-c3nnc(C(F)F)o3)ccc2CC1c1ccc(F)cc1 (single isomer, unassigned; isomer 1) [Example 41b, 7-[5-(difluoromethyl)-1,3,4-oxadiazol-2-yl]-3-(4-fluorophenyl)-2-methyl-3,4-dihydroisoquinolin-1(2H)-one (Optical Isomer 1)] | 99 |
| N#Cc1cc(Cn2ccnc2-c2cc(-c3nnc(C(F)F)o3)ccn2)ccc1F [Example 1a, 5-[(2-{4-[5-(difluoromethyl)-1,3,4-oxadiazol-2-yl]pyridin-2-yl}-1H-imidazol-1-yl)methyl]-2-fluorobenzonitrile] | 100 |
| COC(=O)N(Cc1ccc(F)cc1)N1Cc2ccc(-c3nnc(C(F)F)o3)cc2C1=O [Example 1c, methyl {6-[5-(difluoromethyl)-1,3,4-oxadiazol-2-yl]-1-oxo-1,3-dihydro-2H-isoindol-2-yl}[(4-fluorophenyl)methyl]carbamate] | 99 |
| FC(F)c1nnc(-c2cccc(-n3nccc3C3CC3)c2)o1 [Example 2a, 2-[3-(5-cyclopropyl-1H-pyrazol-1-yl)phenyl]-5-(difluoromethyl)-1,3,4 oxadiazole] | 104 |
| O=C1NN(c2ccc(F)cc2)Cc2ccc(-c3nnc(C(F)F)o3)cc21 [Example 2b, 7-[5-(difluoromethyl)-1,3,4-oxadiazol-2-yl]-3-(4-fluorophenyl)-3,4-dihydrophthalazin-1(2H)-one] | 100 |
| O=C1c2cc(-c3nnc(C(F)F)o3)ccc2CN1N(Cc1ccc(F)cc1)CC1CCOCC1 [Example 2c, 6-[5-(difluoromethyl)-1,3,4-oxadiazol-2-yl]-2-{[(4-fluorophenyl)methyl][(oxan-4-yl)methyl]amino}-2,3-dihydro-1H-isoindol-1-one] | 99 |
| FC(F)c1nnc(-c2ccnc(-c3nccn3Cc3ccccn3)c2)o1 [Example 3a, 4-[5-(difluoromethyl)-1,3,4-oxadiazol-2-yl]-2-{1-[(pyridin-2-yl)methyl]-1H-imidazol-2-yl}pyridine] | 99 |
| CC(C)(C)OC(=O)NN1Cc2ccc(-c3nnc(C(F)F)o3)cc2C1=O [Example 3c, tert-butyl {6-[5-(difluoromethyl)-1,3,4-oxadiazol-2-yl]-1-oxo-1,3-dihydro-2H-isoindol-2-yl}carbamate] | 99 |
| Fc1cc(-c2nnc(C(F)F)o2)cc(-c2nccn2Cc2ccccc2)c1 [Example 4a, 2-[3-(1-benzyl-1H-imidazol-2-yl)-5-fluorophenyl]-5-(difluoromethyl)-1,3,4-oxadiazole] | 99 |
| CN1C(=O)c2cc(-c3nnc(C(F)F)o3)ccc2OC1(C)c1ccccc1 (stereo not shown) [Example 4b, 6-[5-(difluoromethyl)-1,3,4-oxadiazol-2-yl]-2,3-dimethyl-2-phenyl-2,3-dihydro-4H-1,3-benzoxazin-4-one] | 99 |

Other lines, results leading:

| inhibition at 10 µM [%] | Compound |
| --- | --- |
| 100 | CN1C(=O)c2cc(-c3nnc(C(F)F)o3)ccc2OC1(C)c1ccc(F)cc1 (single isomer, unassigned; isomer 1) [Example 8b, 6-[5-(difluoromethyl)-1,3,4-oxadiazol-2-yl]-2-(4-fluorophenyl)-2,3-dimethyl-2,3-dihydro-4H-1,3-benzoxazin-4-one (Optical Isomer 1)] |
| 101 | O=C1NN(c2ccc(F)cc2)Cc2ncc(-c3nnc(C(F)F)o3)cc21 [Example 3b, 3-[5-(difluoromethyl)-1,3,4-oxadiazol-2-yl]-7-(4-fluorophenyl)-7,8-dihydropyrido[2,3-d]pyridazin-5(6H)-one] |
